Data reported in patent US12060349B2, “Glucosylceramide synthase inhibitors” (Genzyme Corporation, priority 2012, dated 2024).
pIC50: −log10 of the molar value. Like-named read-outs stand apart in the source and are kept apart here.

What was measured:
B16 mouse melanoma cells = assay: cell viability in the B16 cell-based assay (Viability, B16 IC50)
Outline: (§1)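 Viability readouts were run alongside the GM3 cell-surface assay in the same B16 and C32 cultures. A figure above 10 indicates no cell death.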

[1] = tested on: GM3 expression on the cell surface, B16 mouse melanoma cells; assay: cell based phenotypic assay, cell surface GM3 by antibody mediated immunofluorescence, B16 (GM3 B16 IC50); settings: 50% inhibition of GM3 expression on the cell surface
Outline: (§2)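 B16 mouse and C32 human melanoma cells; cell-surface GM3 measured by antibody-mediated immunofluorescence, giving IC50.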

[2] = target: T1, glucosylceramide synthase (Homo sapiens, UniProt Q16739); assay: microsomal assay measuring conversion of ceramide to glucosylceramide by HPLC (GCS IC50); assay type: biochemical; settings: concentration causing 50% inhibition of glucosylceramide synthase activity
T1 construct: Microsomes were isolated from A375 human melanoma cells; endogenous in cells; host or cells: A375 human melanoma cells (microsomal fraction, 100,000 g pellet)
T1 sequence (Q16739 1-394): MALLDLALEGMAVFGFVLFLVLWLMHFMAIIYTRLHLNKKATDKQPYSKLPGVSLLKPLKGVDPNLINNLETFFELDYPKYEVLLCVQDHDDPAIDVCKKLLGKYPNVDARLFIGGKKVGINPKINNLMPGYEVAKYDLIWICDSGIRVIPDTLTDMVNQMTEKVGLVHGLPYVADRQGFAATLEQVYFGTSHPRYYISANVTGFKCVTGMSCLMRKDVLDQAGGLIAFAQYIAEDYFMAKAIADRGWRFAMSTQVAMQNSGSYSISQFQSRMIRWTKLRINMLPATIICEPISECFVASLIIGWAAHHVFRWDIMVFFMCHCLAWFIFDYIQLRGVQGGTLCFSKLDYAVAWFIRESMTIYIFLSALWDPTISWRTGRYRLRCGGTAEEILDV
Outline: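 IC50 is the compound concentration halving glucosylceramide synthase activity. Activity was measured in microsomes, with HPLC quantifying glucosylceramide formed from ceramide.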

[3] = tested on: GM3 expression on the cell surface, C32 human melanoma cells; assay: cell based phenotypic assay, cell surface GM3 by antibody mediated immunofluorescence, C32 (GM3 C32 IC50); settings: 50% inhibition of GM3 expression on the cell surface
Outline: as §2

C32 human melanoma cells = assay: cell viability in the C32 cell-based assay (Viability, C32 IC50); settings: concentration causing 50% cell death, values greater than 10 represent a lack of cell death
Outline: as §1

[4] = Mus musculus, B16, B16 cells, concentration causing 50% cell death, values greater than 10 represent a lack of cell death, read-out: Viability, B16 IC50
[5] = Mus musculus, B16 mouse melanoma cells, read-out: GM3 B16 IC50
[6] = Homo sapiens, C32 human melanoma cells, read-out: GM3 C32 IC50
[7] = Homo sapiens, C32, C32 cells, read-out: Viability, C32 IC50
[8] = Mus musculus, B16, read-out: Viability, B16 IC50
[9] = Mus musculus, read-out: GM3 B16 IC50, B16 mouse melanoma cells
[10] = Homo sapiens, read-out: GM3 C32 IC50, C32 human melanoma cells
[11] = Homo sapiens, C32, read-out: Viability, C32 IC50, C32 cells

Molecule	pIC50 (B16 mouse melanoma cells; [4])	pIC50 [1, 5]	pIC50 [2]	pIC50 [3, 6]	pIC50 (C32 human melanoma cells; [7])	pIC50 (B16 mouse melanoma cells; [8])	pIC50 [1, 9]	pIC50 [3, 10]	pIC50 (C32 human melanoma cells; [11])	pIC50 (B16 mouse melanoma cells; B16 cells, concentration causing 50% cell death, values greater than 10 represent a lack of cell death, read-out: Viability, B16 IC50)	pIC50 ([1]; B16 mouse melanoma cells, read-out: GM3 B16 IC50)	pIC50 ([3]; C32 human melanoma cells, read-out: GM3 C32 IC50)	pIC50 (C32 human melanoma cells; C32 cells, read-out: Viability, C32 IC50)
COCCCOc1ccc(-c2nc(N3CCC(C(=O)NC4(C)CN5CCC4CC5)CC3)ncc2F)cc1 (stereo not drawn) [Example 63, 1-(5-Fluoro-4-(4-(3-methoxypropoxy)phenyl)pyrimidin-2-yl)-N-(3-methylquinuclidin-3-yl)piperidine-4-carboxamide]	5.45	7.39	9.23	10.01	7.00	–	–	–	–	–	–	–	–
O=C(NC1(c2ccc(-c3ccc(COCc4cccnc4)cc3)cc2)CC1)OC1CN2CCC1CC2 (stereo not drawn) [Example 216, Quinuclidin-3-yl (1-(4′-((pyridin-3-ylmethoxy)methyl)-[1,1′-biphenyl]-4-yl)cyclopropyl)carbamate]	–	–	8.03	–	–	5.10	6.70	7.95	≤ 5.00	–	–	–	–
COCCOc1ccc(-c2cccc(N3CCC(C(=O)NC4(C)CCN5CCC4CC5)CC3)c2)cc1 (stereo not drawn) [Example 68, 1-(4′-(2-Methoxyethoxy)-[1,1′-biphenyl]-3-yl)-N-(4-methyl-1-azabicyclo[3.2.2]nonan-4-yl)piperidine-4-carboxamide]	5.15	6.88	7.67	8.45	5.50	–	–	–	–	–	–	–	–
CNC(=O)c1ccc(-c2ccc(C(C)(C)NC(=O)NC3(C)CN4CCC3CC4)cc2)cc1 (stereo not drawn) [Example 253, N-Methyl-4′-(2-(3-(3-methylquinuclidin-3-yl)ureido)propan-2-yl)-[1,1′-biphenyl]-4-carboxamide]	5.70	5.70	6.12	6.70	5.70	–	–	–	–	–	–	–	–
CC1(NC(=O)C2CCN(c3cccc(-c4ccc(F)cc4)c3)CC2)CCN2CCC1CC2 (stereo not drawn) [Example 34, 1-(4′-Fluoro-[1,1′-biphenyl]-3-yl)-N-(4-methyl-1-azabicyclo[3.2.2]nonan-4-yl)piperidine-4-carboxamide]	5.33	7.10	8.32	9.06	6.50	–	–	–	–	–	–	–	–
COCCCOc1ccc(-c2ccnc(N3CCC(C(=O)NC4(C)CCN5CCC4CC5)CC3)n2)cc1 (stereo not drawn) [Example 67, 1-(4-(4-(3-Methoxypropoxy)phenyl)pyrimidin-2-yl)-N-(4-methyl-1-azabicyclo[3.2.2]nonan-4-yl)piperidine-4-carboxamide]	5.31	8.14	8.73	9.94	6.00	–	–	–	–	–	–	–	–
CNC(=O)c1ccc(-c2ccc(C(C)(C)NC(=O)N3CCN4CCC3CC4)cc2)cc1 [Example 256, N-(2-(4′-(Methylcarbamoyl)biphenyl-4-yl)propan-2-yl)-1,4-diazabicyclo[3.2.2]nonane-4-carboxamide]	≤ 5.00	5.35	4.91	6.14	≤ 5.00	–	–	–	–	–	–	–	–
O=C(NC1CCN2CCC1CC2)N1CCN(c2ccc(-c3ccccc3)cc2)CC1 (stereo not drawn) [Example 3, 4-([1,1′-Biphenyl]-4-yl)-N-(1-azabicyclo[3.2.2]nonan-4-yl)piperazine-1-carboxamide]	5.38	5.16	4.96	6.00	5.60	–	–	–	–	–	–	–	–
COCCOc1ccc(-c2ccc(C(C)(C)NC(=O)OC3CN4CCC3CC4)nc2)cc1 (stereo not drawn) [Example 346, Quinuclidin-3-yl 2-(5-(4-(2-methoxyethoxy)phenyl)pyridin-2-yl)propan-2-ylcarbamate]	–	–	7.29	–	–	≤ 5.00	6.58	7.95	5.50	–	–	–	–
CNC(=O)c1cccc(Oc2cccc(C(C)(C)NC(=O)OC3CCN4CCC3CC4)c2)c1 (stereo not drawn) [Example 298, 1-Aza-bicyclo[3.2.2]nonan-4-yl 2-(3-(3-(methylcarbamoyl)phenoxy)phenyl)propan-2-ylcarbamate]	≤ 5.00	5.96	6.86	7.51	5.50	–	–	–	–	–	–	–	–
CC(C)(NC(=O)OC1CN2CCC1CC2)c1ccc(-c2ccc(C(=O)N3CCCCC3)cc2)cc1 (stereo not drawn) [Example 262, Quinuclidin-3-yl 2-(4′-(piperidine-1-carbonyl)biphenyl-4-yl)propan-2-ylcarbamate]	–	–	7.71	–	–	≤ 5.00	6.95	8.46	6.00	–	–	–	–
CC1(NC(=O)N2CCC(c3cccc(-c4ccccc4)c3)CC2)CCN2CCC1CC2 (stereo not drawn) [Example 52, 4-([1,1′-Biphenyl]-3-yl)-N-(4-methyl-1-azabicyclo[3.2.2]nonan-4-yl)piperidine-1-carboxamide]	5.13	5.97	6.30	6.47	5.06	–	–	–	–	–	–	–	–
CCC1(NC(=O)NC(C)(C)c2ccc(-c3ccc(CCO)cc3)cc2)CN2CCC1CC2 (stereo not drawn) [Example 225, 1-(3-Ethylquinuclidin-3-yl)-3-(2-(4′-(2-hydroxyethyl)-[1,1′-biphenyl]-4-yl)propan-2-yl)urea]	≤ 5.00	6.64	7.53	8.72	≤ 5.00	–	–	–	–	–	–	–	–
CNC(=O)c1ccc(-c2ccc(C(C)(C)NC(=O)OC3CN4CCC3CC4)cc2)cc1 (stereo not drawn) [Example 252, Quinuclidin-3-yl (2-(4′-(methylcarbamoyl)-[1,1′-biphenyl]-4-yl)propan-2-yl)carbamate]	–	–	5.74	–	–	≤ 5.00	5.82	6.66	≤ 5.00	–	–	–	–
CC(C)(NC(=O)OC1CN2CCC1CC2)c1ccc(-c2ccc(OCCn3ccnn3)cc2)cc1 (stereo not drawn) [Example 182, Quinuclidin-3-yl (2-(4′-(2-(1H-1,2,3-triazol-1-yl)ethoxy)-[1,1′-biphenyl]-4-yl)propan-2-yl)carbamate]	–	–	7.37	–	–	5.50	6.41	7.88	6.00	–	–	–	–
1-(4-(4-(2-Methoxyethoxy)phenyl)-2-methylbut-3-yn-2-yl)-3-(3-propylquinuclidin-3-yl)urea [Example 330]	–	–	6.98	–	–	–	–	–	–	≤ 5.00	6.69	8.19	5.50
CC(C)(NC(=O)OC1CN2CCC1CC2)c1ccc(-c2ccc(C(=O)N3CC(F)(F)C3)cc2)cc1 (stereo not drawn) [Example 273, Quinuclidin-3-yl 2-(4′-(3,3-difluoroazetidine-1-carbonyl)biphenyl-4-yl)propan-2-ylcarbamate]	–	–	6.97	–	–	≤ 5.00	7.13	7.97	5.50	–	–	–	–
CC1(NC(=O)C2CCN(c3nccc(Oc4ccc(F)cc4)n3)CC2)CCN2CCC1CC2 (stereo not drawn) [Example 115, 1-(4-(4-Fluorophenoxy)pyrimidin-2-yl)-N-(4-methyl-1-azabicyclo[3.2.2]nonan-4-yl)piperidine-4-carboxamide]	5.03	8.05	8.61	9.85	7.33	–	–	–	–	–	–	–	–
O=C(N1CCN(c2ccccc2)CC1)N1CCN2CCC1CC2 [Example 11, 1,4-Diazabicyclo[3.2.2]nonan-4-yl(4-phenylpiperazin-1-yl)methanone]	≤ 5.00	< 5.00	4.68	< 5.00	≤ 5.00	–	–	–	–	–	–	–	–
CC(C)(NC(=O)OC1CN2CCC1CC2)c1ccc(-c2ccc(CN3CCOCC3)cc2)cc1 (stereo not drawn) [Example 229, Quinuclidin-3-yl (2-(4′-(morpholinomethyl)-[1,1′-biphenyl]-4-yl)propan-2-yl)carbamate]	–	–	6.80	–	–	≤ 5.00	6.28	7.27	≤ 5.00	–	–	–	–
CC(C)(NC(=O)OC1CCN2CCC1CC2)c1ccc(-c2ccc(S(=O)(=O)CC3CC3)cc2)cc1 (stereo not drawn) [Example 241, 1-Azabicyclo[3.2.2]nonan-4-yl (2-(4′-((cyclopropylmethyl)sulfonyl)-[1,1′-biphenyl]-4-yl)propan-2-yl)carbamate]	≤ 5.00	7.91	8.37	8.84	5.50	–	–	–	–	–	–	–	–
